From US7595401B2, “Therapeutic compounds and their use in cancer” (Myriad Pharmaceuticals, Inc., priority 2006, dated 2009) come the findings set out here.

One assay has as its system purified human Hsp90. The assay is described as follows: Binding Assay: fluorescence polarization with BODIPY-labeled geldanamycin. To be noted: 5 μM compound, BODIPY-GM 10 nM, Hsp90 30 nM. An outline of the steps: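 Fluorescence polarization competition with BODIPY-geldanamycin (10 nM final) and human Hsp90 (30 nM final) in HEPES-KOH pH 7.3 buffer with molybdate, NP-40, DTT; 2% DMSO, overnight at room temperature. Read 485/530 nm; percent inhibition from mP normalized to DMSO controls, fluorescent-compound points excluded.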
In general terms: Fluorescence polarisation rises when a labelled molecule tumbles more slowly, as on binding a larger partner.
One may read the % Inhibition as the share of the control response that was lost under treatment. Higher therefore signals a strong effect. With `Nc1ncn(CCn2cnc3ccccc3c2=O)c2nc(Sc3cc4c(cc3Br)OCO4)nc1-2` [Example 270, 3-(2-{6-Amino-8-[(6-bromo-1,3-benzodioxol-5-yl)thio]-3H-purin-3-yl}ethyl)quinazolin-4(3 H)-one], the “% Inhibition at 5 μM Compound Concentration” value (from here on “% Inhibition”) is 7.0%. On to `COc1ccc(OC)c(Sc2nc3c(N)ncn(CCn4cnc5ccccc5c4=O)c-3n2)c1` [Example 272, 3-(2-{6-Amino-8-[(2,5-dimethoxyphenyl)thio]-3H-purin-3-yl}ethyl)quinazolin-4(3 H)-one], for which the “% Inhibition” value turned out to be 16%. Same read-out and setting: the value for `CC(C)(C)NS(=O)(=O)c1ccc(CCn2cnc(N)c3nc(Sc4cc5c(cc4Br)OCO5)nc2-3)cc1` [Example 274, 4-(2-{6-Amino-8-[(6-bromo-1,3-benzodioxol-5-yl)thio]-3H-purin-3-yl}ethyl) N-(tert-butyl)benzenesulfonamide] was 0.0%.

Take `COc1ccc(OC)c(Sc2nc3c(N)ncn(CCc4ccc(S(=O)(=O)NC(C)(C)C)cc4)c-3n2)c1` [Example 276, 4-(2-{6-Amino-8-[(2,5-dimethoxyphenyl)thio]-3H-purin-3-yl}ethyl)-N-(tert-butyl)benzenesulfonamide]: the “% Inhibition” value is 0.0%.

In the case of `CCCCNC(=O)Nc1ccc(CCn2cnc(N)c3nc(Sc4cc(OC)ccc4OC)nc2-3)cc1` [Example 278, N-[4-(2-{6-Amino-8-[(2,5-dimethoxyphenyl)thio]-3H-purin-3-yl}ethyl)phenyl]-N′-butylurea], the “% Inhibition” value is 1.0%.

In the case of `COc1ccc(OC)c(Sc2nc3c(N)ncn(CC4(c5ccc(Cl)cc5)CC4)c-3n2)c1` [Example 280, 3-{[1-(4-Chlorophenyl)cyclopropyl]methyl}-8-[(2,5-dimethoxyphenyl)thio]-3H-purin-6-amine], the “% Inhibition” value is 0.0%. For the molecule `Nc1ncn(CCc2ccccc2)c2nc(Sc3ccc4ncoc4c3)nc1-2` [Example 284, 8-(1,3-Benzoxazol-6-ylthio)-3-(2-phenylethyl)-3H-purin-6-amine], the “% Inhibition” value worked out at 3.0%.

As to `Nc1ncn(CCc2ccccc2C(F)(F)F)c2nc(Sc3cc4c(cc3Br)OCO4)nc1-2` [Example 291, 8-[(6-Bromo-1,3-benzodioxol-5-yl)thio]-3-{2-[2-(trifluoromethyl)phenyl]ethyl}-3H-purin-6-amine], the “% Inhibition” value is reported as 0.0%. As to `Nc1ncn(CCc2ccccc2)c2nc(Sc3ccc4c(c3)OC(F)(F)O4)nc1-2` [Example 293, 8-[(2,2-Difluoro-1,3-benzodioxol-5-yl)thio]-3-(2-phenylethyl)-3H-purin-6-amine], the “% Inhibition” value turned out to be 0.0%. Same read-out and setting: the value for `Nc1ncn(CCc2ccccc2Cl)c2nc(Sc3ccc4c(c3)OC(F)(F)O4)nc1-2` [Example 295, 3-[2-(2-Chlorophenyl)ethyl]-8-[(2,2-difluoro-1,3-benzodioxol-5-yl)thio]-3H-purin-6-amine] was 0.0%. On the same count and under the same terms, the value for `COc1ccc(CCn2cnc(N)c3nc(Sc4cc5c(cc4Br)OCO5)nc2-3)cc1OC` [Example 297, 8-[(6-Bromo-1,3-benzodioxol-5-yl)thio]-3-[2-(3,4-dimethoxyphenyl)ethyl]-3H-purin-6-amine] was 8.0%; that for `COc1cccc(Sc2nc3c(N)ncn(CC(=O)c4ccccc4)c-3n2)c1` [Example 299, 2-{6-Amino-8-[(3-methoxyphenyl)thio]-3H-purin-3-yl}-1-phenylethanone] was 0.0%. Consider `Nc1ncn(CCc2ccc(O)cc2)c2nc(Sc3cc4c(cc3Br)OCO4)nc1-2` [Example 301, 4-(2-{6-Amino-8-[(6-bromo-1,3-benzodioxol-5-yl)thio]-3H-purin-3-yl}ethyl)phenol], for which the “% Inhibition” value is on record as 5.0%.

Regarding `Nc1ncn(CCc2ccc3ccccc3c2)c2nc(Sc3cc4c(cc3Br)OCO4)nc1-2` [Example 303, 8-[(6-Bromo-1,3-benzodioxol-5-yl)thio]-3-[2-(2-naphthyl)ethyl]-3H-purin-6-amine], the “% Inhibition” value stood at 21.0%.

Still in this assay, the particulars now being: BODIPY-GM 10 nM, Hsp90 30 nM.
A word on the IC50: it is the midpoint of a concentration-inhibition curve. The low end stands for greater potency, the high end for weaker potency. In the case of `Nc1ncnc2c1nc(Sc1cc3c(cc1Br)OCO3)n2CCn1cnc2ccccc2c1=O` [Example 269, 3-(2-{6-Amino-8-[(6-bromo-1,3-benzodioxol-5-yl)thio]-9H-purin-9-yl}ethyl)quinazolin-4(3 H)-one], the IC50 amounted to 5500 nM. For the molecule `COc1ccc(OC)c(Sc2nc3c(N)ncnc3n2CCn2cnc3ccccc3c2=O)c1` [Example 271, 3-(2-{6-Amino-8-[(2,5-dimethoxyphenyl)thio]-9H-purin-9-yl}ethyl)quinazolin-4(3 H)-one], the IC50 was > 25000 nM. Turning to `CC(C)(C)NS(=O)(=O)c1ccc(CCn2c(Sc3cc4c(cc3Br)OCO4)nc3c(N)ncnc32)cc1` [Example 273, 4-(2-{6-Amino-8-[(6-bromo-1,3-benzodioxol-5-yl)thio]-9H-purin-9-yl}ethyl)-N-(tert-butyl)benzenesulfonamide], the half-maximal inhibitory concentration (IC50) was 1300 nM.

In the case of `COc1ccc(OC)c(Sc2nc3c(N)ncnc3n2CCc2ccc(S(=O)(=O)NC(C)(C)C)cc2)c1` [Example 275, 4-(2-{6-Amino-8-[(2,5-dimethoxyphenyl)thio]-9H-purin-9-yl}ethyl)-N-(tert-butyl)benzenesulfonamide], the IC50 was > 3000 nM.

As to `CCCCNC(=O)Nc1ccc(CCn2c(Sc3cc(OC)ccc3OC)nc3c(N)ncnc32)cc1` [Example 277, N-[4-(2-{6-Amino-8-[(2,5-dimethoxyphenyl)thio]-9H-purin-9-yl}ethyl)phenyl]-N′-butylurea], the IC50 is > 8000 nM.

As to `COc1ccc(OC)c(Sc2nc3c(N)ncnc3n2CC2(c3ccc(Cl)cc3)CC2)c1` [Example 279, 9-{[1-(4-Chlorophenyl)cyclopropyl]methyl}-8-[(2,5-dimethoxyphenyl)thio]-9H-purin-6-amine], the IC50 was > 25000 nM. Same read-out and setting: the value for `CCCCNC(=O)Nc1ccc(CCn2c(Sc3cc4c(cc3Br)OCO4)nc3c(N)ncnc32)cc1` [Example 281, N-[4-(2-{6-Amino-8-[(6-bromo-1,3-benzodioxol-5-yl)thio]-9H-purin-9-yl}ethyl)phenyl]-N′-butylurea] was 120 nM; that for `Nc1ccccc1CCn1c(Sc2cc3c(cc2Br)OCO3)nc2c(N)ncnc21` [Example 282, 9-[2-(2-Aminophenyl)ethyl]-8-[(6-bromo-1,3-benzodioxol-5-yl)thio]-9H-purin-6-amine] was 55 nM. `Nc1ncnc2c1nc(Sc1ccc3ncoc3c1)n2CCc1ccccc1` [Example 283, 8-(1,3-Benzoxazol-6-ylthio)-9-(2-phenylethyl)-9H-purin-6-amine] registered an IC50 of 12000 nM. For `CCC(Cn1c(Sc2cc(OC)ccc2OC)nc2c(N)ncnc21)c1ccccc1` (stereo not drawn) [Example 285, 8-[(2,5-Dimethoxyphenyl)thio]-9-(2-phenylbutyl)-9H-purin-6-amine], the IC50 is 1300 nM. `COc1cc(Sc2nc3c(N)ncnc3n2CCc2ccccc2)c(Cl)c(OC)c1OC` [Example 286, 8-[(2-Chloro-3,4,5-trimethoxyphenyl)thio]-9-(2-phenylethyl)-9H-purin-6-amine]: the IC50 was 3000 nM. The molecule `COc1ccccc1CCn1c(Sc2cc3c(cc2Br)OCO3)nc2c(N)ncnc21` [Example 287, 8-[(6-Bromo-1,3-benzodioxol-5-yl)thio]-9-[2-(2-methoxyphenyl)ethyl]-9H-purin-6-amine] came in with an IC50 of 60 nM. Still for that read-out and setting: the value for `COc1cccc(Sc2nc3c(N)ncn(CCc4ccccc4)c-3n2)c1` [Example 288, 8-[(3-Methoxyphenyl)thio]-3-(2-phenylethyl)-3H-purin-6-amine] was 4000 nM; that for `Nc1ncnc2c1nc(Sc1ccc3c(c1)OCO3)n2CCc1ccccc1Cl` [Example 289, 8-(1,3-Benzodioxol-5-ylthio)-9-[2-(2-chlorophenyl)ethyl]-9H-purin-6-amine] was 1600 nM. `Nc1ncnc2c1nc(Sc1cc3c(cc1Br)OCO3)n2CCc1ccccc1C(F)(F)F` [Example 290, 8-[(6-Bromo-1,3-benzodioxol-5-yl)thio]-9-{2-[2-(trifluoromethyl)phenyl]ethyl}-9H-purin-6-amine] displayed an IC50 of 70 nM. As for `Nc1ncnc2c1nc(Sc1ccc3c(c1)OC(F)(F)O3)n2CCc1ccccc1` [Example 292, 8-[(2,2-Difluoro-1,3-benzodioxol-5-yl)thio]-9-(2-phenylethyl)-9H-purin-6-amine], the IC50 is > 25000 nM. As to `Nc1ncnc2c1nc(Sc1ccc3c(c1)OC(F)(F)O3)n2CCc1ccccc1Cl` [Example 294, 9-[2-(2-Chlorophenyl)ethyl]-8-[(2,2-difluoro-1,3-benzodioxol-5-yl)thio]-9H-purin-6-amine], the IC50 is > 25000 nM. On the same count and under the same terms, the value for `COc1ccc(CCn2c(Sc3cc4c(cc3Br)OCO4)nc3c(N)ncnc32)cc1OC` [Example 296, 8-[(6-Bromo-1,3-benzodioxol-5-yl)thio]-9-[2-(3,4-dimethoxyphenyl)ethyl]-9H-purin-6-amine] was 350 nM. Still for that read-out and setting: then `COc1cccc(Sc2nc3c(N)ncnc3n2CC(=O)c2ccccc2)c1` [Example 298, 2-{6-Amino-8-[(3-methoxyphenyl)thio]-9H-purin-9-yl}-1-phenylethanone], with > 25000 nM; and `Nc1ncnc2c1nc(Sc1cc3c(cc1Br)OCO3)n2CCc1ccc(O)cc1` [Example 300, 4-(2-{6-Amino-8-[(6-bromo-1,3-benzodioxol-5-yl)thio]-9H-purin-9-yl}ethyl)phenol], with 400 nM; and `Nc1ncnc2c1nc(Sc1cc3c(cc1Br)OCO3)n2CCc1ccc2ccccc2c1` [Example 302, 8-[(6-Bromo-1,3-benzodioxol-5-yl)thio]-9-[2-(2-naphthyl)ethyl]-9H-purin-6-amine], with > 25000 nM. With `COc1ccc(C#N)cc1Sc1nc2c(N)ncnc2n1CCc1ccccc1` [Example 304, 3-{[6-Amino-9-(2-phenylethyl)-9H-purin-8-yl]thio}-4-methoxybenzonitrile], the IC50 is > 25000 nM.
